The record followed here is patent US10670605B2, “Cysteine reactive probes and uses thereof” (The Scripps Research Institute, priority 2015, dated 2020).

In assay [1] the target is cysteines in MDA-MB-231 and Ramos cells (Homo sapiens, UniProt Q9Y5S2). Kind of assay: Competitive isoTOP-ABPP in situ (fragment-treated cells). The assay is classed as cell-based.
For assay [2], the target named is cysteines in MDA-MB-231 and Ramos cells (Homo sapiens, UniProt Q8IU81). The description is as above. In kind it is cell-based. The following applies: 200 μM, insitu, 231.
Chain of cysteines in MDA-MB-231 and Ramos cells (Homo sapiens, UniProt Q8IU81) (Q8IU81 whole entry): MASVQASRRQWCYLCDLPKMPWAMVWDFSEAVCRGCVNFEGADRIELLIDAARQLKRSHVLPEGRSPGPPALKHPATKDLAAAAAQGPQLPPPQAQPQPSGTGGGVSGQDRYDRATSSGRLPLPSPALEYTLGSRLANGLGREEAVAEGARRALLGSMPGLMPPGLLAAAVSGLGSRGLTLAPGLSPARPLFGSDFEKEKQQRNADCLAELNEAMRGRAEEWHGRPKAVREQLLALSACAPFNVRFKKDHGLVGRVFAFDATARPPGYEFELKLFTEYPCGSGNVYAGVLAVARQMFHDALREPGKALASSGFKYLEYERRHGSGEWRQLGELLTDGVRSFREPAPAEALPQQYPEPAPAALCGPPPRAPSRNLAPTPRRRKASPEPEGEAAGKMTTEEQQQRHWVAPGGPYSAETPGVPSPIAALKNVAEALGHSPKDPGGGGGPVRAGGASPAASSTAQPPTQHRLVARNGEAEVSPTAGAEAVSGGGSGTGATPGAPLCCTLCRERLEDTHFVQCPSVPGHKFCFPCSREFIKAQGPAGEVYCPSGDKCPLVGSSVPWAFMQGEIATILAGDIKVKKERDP
A further assay concerns the target O114933_C98 (Homo sapiens, UniProt O14933). As to the kind of experiment: Competitive isoTOP-ABPP, cell lysates. The assay is classed as binding. Conditions: 500 μm.
The target of the next assay is O00541_C272 (Homo sapiens, UniProt O00541). As to the kind of experiment: Competitive isoTOP-ABPP, cell lysates. The assay is classed as binding. The following applies: 500 μm.
Chain of O00541_C272 (O00541 whole entry, looked up): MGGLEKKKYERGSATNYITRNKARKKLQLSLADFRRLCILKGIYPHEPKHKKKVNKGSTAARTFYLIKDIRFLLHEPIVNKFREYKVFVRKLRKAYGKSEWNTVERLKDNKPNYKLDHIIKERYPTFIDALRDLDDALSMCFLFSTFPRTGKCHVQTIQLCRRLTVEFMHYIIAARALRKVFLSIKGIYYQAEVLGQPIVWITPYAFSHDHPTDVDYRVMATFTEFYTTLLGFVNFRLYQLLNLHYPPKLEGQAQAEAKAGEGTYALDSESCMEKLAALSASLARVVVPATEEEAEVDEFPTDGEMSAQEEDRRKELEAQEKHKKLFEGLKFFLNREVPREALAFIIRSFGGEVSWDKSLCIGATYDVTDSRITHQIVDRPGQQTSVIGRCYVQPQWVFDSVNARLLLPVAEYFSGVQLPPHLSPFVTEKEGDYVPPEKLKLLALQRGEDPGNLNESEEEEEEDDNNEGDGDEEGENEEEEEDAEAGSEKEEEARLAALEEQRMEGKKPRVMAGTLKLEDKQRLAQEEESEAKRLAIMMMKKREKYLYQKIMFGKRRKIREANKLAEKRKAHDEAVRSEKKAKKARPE
Assay [3] addresses T1, cysteines in MDA-MB-231 and Ramos cells (Homo sapiens, UniProt Q9UKX7).
T1 sequence (Q9UKX7 1-468): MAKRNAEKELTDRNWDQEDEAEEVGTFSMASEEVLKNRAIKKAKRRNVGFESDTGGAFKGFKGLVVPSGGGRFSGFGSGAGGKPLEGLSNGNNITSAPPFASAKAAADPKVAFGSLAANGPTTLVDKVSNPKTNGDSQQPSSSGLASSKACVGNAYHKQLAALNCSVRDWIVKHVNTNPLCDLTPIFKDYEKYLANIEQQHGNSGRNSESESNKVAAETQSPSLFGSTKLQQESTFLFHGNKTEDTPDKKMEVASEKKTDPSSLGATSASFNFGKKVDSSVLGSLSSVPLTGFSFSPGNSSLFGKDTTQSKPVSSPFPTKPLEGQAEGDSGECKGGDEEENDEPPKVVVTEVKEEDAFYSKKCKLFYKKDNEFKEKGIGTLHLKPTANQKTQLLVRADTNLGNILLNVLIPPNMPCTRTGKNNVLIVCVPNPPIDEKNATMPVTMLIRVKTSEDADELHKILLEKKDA
As to the kind of experiment: Competitive isoTOP-ABPP in situ (fragment-treated cells). The assay is classed as cell-based.

In assay [4] the target is cysteines in MDA-MB-231 and Ramos cells (Homo sapiens, UniProt O75150). The assay is described as above. The assay is classed as cell-based. The following applies: 200 μM, insitu.
Chain of cysteines in MDA-MB-231 and Ramos cells (Homo sapiens, UniProt O75150) (O75150 whole entry): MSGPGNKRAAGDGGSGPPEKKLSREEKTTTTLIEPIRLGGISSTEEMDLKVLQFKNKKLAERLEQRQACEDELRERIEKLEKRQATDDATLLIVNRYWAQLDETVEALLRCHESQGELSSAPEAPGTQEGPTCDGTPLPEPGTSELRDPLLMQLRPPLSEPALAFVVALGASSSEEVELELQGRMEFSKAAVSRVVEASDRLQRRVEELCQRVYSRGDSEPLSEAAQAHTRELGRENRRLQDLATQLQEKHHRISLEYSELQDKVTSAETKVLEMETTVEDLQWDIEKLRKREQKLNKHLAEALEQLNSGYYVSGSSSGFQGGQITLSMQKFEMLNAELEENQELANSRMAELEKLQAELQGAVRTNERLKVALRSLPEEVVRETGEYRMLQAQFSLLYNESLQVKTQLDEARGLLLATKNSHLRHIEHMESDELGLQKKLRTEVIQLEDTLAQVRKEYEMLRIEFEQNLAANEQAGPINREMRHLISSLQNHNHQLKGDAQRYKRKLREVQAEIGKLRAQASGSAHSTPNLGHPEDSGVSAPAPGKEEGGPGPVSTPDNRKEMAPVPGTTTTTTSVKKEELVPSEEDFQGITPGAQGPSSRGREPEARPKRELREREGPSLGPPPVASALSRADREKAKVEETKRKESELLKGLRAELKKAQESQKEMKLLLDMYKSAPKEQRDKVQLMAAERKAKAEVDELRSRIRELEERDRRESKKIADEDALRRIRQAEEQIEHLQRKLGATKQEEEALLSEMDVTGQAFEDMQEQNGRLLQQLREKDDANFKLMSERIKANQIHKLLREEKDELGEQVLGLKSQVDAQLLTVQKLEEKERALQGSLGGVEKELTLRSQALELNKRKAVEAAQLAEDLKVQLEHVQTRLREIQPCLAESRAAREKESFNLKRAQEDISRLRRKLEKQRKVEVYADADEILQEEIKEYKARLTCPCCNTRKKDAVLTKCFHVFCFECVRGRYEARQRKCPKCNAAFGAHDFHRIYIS
In assay [5] the target is T2, cysteines in MDA-MB-231 and Ramos cells (Homo sapiens, UniProt Q9NXJ5).
T2 sequence (Q9NXJ5 1-209): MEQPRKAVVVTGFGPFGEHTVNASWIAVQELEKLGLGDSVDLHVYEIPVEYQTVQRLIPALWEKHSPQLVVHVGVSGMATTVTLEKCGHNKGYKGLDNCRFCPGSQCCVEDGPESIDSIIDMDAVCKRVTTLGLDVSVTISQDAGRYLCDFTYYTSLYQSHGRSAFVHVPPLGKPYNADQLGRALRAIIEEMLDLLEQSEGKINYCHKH
The assay is described as above. The assay is classed as cell-based. Conditions: 200 μM, insitu.

The target of assay [6] is T3, cysteines in MDA-MB-231 and Ramos cells (Homo sapiens, UniProt Q99798).
T3 sequence (Q99798 28-780): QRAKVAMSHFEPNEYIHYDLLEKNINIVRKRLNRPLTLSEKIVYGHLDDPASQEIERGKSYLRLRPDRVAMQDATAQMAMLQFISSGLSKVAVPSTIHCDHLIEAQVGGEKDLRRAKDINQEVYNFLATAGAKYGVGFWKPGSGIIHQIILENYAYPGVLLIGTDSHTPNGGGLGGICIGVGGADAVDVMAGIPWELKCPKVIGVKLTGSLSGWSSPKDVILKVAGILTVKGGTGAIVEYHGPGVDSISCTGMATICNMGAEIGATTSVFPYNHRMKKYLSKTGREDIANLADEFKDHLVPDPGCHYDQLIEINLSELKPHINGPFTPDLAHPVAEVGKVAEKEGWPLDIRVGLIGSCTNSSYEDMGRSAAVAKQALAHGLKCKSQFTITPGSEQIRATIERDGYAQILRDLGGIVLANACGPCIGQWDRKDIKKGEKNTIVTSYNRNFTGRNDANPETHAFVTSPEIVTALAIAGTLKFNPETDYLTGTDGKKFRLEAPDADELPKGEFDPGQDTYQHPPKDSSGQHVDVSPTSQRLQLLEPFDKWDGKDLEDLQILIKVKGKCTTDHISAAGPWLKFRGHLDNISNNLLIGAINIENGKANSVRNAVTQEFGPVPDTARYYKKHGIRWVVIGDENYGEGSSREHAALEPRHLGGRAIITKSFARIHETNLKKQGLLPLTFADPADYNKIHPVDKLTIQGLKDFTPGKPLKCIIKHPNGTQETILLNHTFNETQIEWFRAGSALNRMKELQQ
Described as above. Conditions: 200 μM, insitu, 231. In kind it is cell-based.

Assay [7] concerns the target cysteines in MDA-MB-231 and Ramos cells (Homo sapiens, UniProt Q9Y5T5). The assay is described as above. In kind it is cell-based. The following applies: 200 μM, insitu.
For assay [8], the target named is cysteines in MDA-MB-231 and Ramos cells (Homo sapiens, UniProt O00541). The assay is described as above. In kind it is cell-based.

SMILES strings stand for the structures.

Chain of cysteines in MDA-MB-231 and Ramos cells (Homo sapiens, UniProt Q9Y5S2) (Q9Y5S2 whole entry, the tested form may be a part): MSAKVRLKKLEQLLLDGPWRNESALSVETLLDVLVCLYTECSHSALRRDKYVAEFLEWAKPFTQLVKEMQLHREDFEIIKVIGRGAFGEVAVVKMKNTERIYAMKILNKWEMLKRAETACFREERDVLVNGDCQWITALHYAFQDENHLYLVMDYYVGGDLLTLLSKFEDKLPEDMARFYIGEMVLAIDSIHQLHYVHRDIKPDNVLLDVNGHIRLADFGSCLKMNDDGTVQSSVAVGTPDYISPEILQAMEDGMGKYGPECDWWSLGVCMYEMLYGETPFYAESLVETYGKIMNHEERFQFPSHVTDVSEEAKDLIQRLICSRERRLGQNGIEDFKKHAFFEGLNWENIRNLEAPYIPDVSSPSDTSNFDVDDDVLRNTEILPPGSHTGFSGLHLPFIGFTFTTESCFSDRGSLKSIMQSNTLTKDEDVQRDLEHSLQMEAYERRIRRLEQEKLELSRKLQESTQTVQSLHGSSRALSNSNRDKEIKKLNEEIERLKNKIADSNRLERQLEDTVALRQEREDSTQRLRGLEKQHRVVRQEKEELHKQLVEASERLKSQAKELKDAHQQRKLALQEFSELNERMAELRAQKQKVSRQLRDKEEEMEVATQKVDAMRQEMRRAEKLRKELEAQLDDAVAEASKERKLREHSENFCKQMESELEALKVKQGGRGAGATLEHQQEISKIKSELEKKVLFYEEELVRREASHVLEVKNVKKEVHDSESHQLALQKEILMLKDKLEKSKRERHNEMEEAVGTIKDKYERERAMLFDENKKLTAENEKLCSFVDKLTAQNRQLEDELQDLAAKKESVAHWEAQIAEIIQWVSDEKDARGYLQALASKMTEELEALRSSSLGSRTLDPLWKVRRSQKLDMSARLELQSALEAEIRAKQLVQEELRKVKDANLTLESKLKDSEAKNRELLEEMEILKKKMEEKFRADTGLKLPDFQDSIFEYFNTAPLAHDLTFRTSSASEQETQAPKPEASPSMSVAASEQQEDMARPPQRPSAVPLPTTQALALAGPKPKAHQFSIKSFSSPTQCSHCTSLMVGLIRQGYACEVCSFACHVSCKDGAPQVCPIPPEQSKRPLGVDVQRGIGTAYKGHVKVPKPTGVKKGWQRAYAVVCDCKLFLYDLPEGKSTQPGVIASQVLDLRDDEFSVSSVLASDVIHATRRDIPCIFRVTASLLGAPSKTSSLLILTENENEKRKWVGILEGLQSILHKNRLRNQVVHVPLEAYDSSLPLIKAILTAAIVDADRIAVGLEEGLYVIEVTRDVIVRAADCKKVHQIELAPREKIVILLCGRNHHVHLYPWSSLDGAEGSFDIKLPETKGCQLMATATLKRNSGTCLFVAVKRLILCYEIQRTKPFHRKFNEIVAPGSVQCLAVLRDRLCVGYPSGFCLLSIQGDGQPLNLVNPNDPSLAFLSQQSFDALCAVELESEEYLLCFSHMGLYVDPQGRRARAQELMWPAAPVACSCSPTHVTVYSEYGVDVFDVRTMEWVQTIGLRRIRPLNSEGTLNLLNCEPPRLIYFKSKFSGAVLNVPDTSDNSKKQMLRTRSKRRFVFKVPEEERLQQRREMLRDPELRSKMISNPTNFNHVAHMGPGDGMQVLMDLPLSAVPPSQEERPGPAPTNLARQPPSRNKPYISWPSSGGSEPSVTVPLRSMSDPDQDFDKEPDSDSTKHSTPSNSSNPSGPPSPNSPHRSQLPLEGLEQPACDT
Chain of O114933_C98 (O14933 whole entry): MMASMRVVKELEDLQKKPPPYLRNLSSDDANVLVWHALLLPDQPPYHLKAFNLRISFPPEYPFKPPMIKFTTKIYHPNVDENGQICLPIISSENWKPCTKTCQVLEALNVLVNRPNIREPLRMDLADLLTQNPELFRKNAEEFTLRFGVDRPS
Chain of cysteines in MDA-MB-231 and Ramos cells (Homo sapiens, UniProt Q9Y5T5) (Q9Y5T5 whole entry): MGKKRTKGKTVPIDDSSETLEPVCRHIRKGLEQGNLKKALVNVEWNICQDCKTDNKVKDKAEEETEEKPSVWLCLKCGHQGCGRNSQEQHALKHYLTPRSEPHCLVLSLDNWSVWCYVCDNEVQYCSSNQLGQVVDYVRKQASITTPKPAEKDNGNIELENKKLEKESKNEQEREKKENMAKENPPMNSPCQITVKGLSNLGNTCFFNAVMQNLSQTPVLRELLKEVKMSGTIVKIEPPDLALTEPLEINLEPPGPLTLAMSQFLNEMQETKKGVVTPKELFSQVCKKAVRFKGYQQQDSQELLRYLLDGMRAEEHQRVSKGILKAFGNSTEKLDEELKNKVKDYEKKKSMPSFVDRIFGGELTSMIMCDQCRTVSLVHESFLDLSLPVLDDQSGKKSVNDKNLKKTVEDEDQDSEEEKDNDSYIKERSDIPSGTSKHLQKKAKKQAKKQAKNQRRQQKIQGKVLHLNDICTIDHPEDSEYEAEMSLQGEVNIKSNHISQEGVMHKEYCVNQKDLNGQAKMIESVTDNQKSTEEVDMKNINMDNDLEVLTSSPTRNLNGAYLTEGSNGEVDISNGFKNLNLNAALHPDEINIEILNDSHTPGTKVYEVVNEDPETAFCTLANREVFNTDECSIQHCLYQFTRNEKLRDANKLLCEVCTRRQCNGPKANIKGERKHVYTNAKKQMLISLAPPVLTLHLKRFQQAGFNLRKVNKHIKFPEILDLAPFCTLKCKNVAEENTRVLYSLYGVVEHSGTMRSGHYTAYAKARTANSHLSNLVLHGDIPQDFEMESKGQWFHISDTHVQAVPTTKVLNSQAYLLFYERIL

In the case of `COc1ccc(C2CC(c3cccs3)=NN2C(=O)CCl)cc1` (centres unmarked) [compound 4], the “isoTOP-ABPP reactivity Q9Y5S2_C1517 CDC42BPB” value in [1] (100 μM in situ 231) is on record as 20.0.
On to `CC1CCc2ccccc2N1C(=O)CCl` (centres unmarked) [compound 45], for which, in assay [2], the “isoTOP-ABPP ratio Q8IU81_C363” value is 1.7. Besides, in [1] (200 μM, insitu, 231), the “isoTOP-ABPP ratio Q9Y5S2_C1517” value stood at 20.0.
For the molecule `O=C(CCl)NC1C(O)OC(CO)C(O)C1O` (mixture of isomers) [compound 44], on O114933_C98 (in-vitro_ramos_231), the “isoTOP-ABPP reactivity profile ratio, O114933_C98” value was determined as 2.0.
`O=C(CCl)Nc1ccccc1C1CCCCCC1` [compound 35]: the “isoTOP-ABPP reactivity ratio, O00541_C272” value (from here on “isoTOP-ABPP reactivity ratio”) on O00541_C272 (in-vitro_ramos) is 1.2; on O00541_C272 (in-vitro_ramos_231), 0.8.
Consider `O=C(CCl)NC(=O)NC12CC3CC(CC(C3)C1)C2` [compound 12], for which the “isoTOP-ABPP ratio, cysteine Q9UKX7_C151” value in assay [3] (200 μM, insitu, 231) is 6.7. Further, the “isoTOP-ABPP ratio, cysteine O75150_C890” value in [4] (231) was 1.1. The “isoTOP-ABPP ratio, cysteine Q9NXJ5_C149” value in assay [5] (231) came to 3.9.
Consider `O=C(CCl)N1CCN(S(=O)(=O)c2ccccc2F)CC1` [compound 10], for which the “isoTOP-ABPP ratio, cysteine O75150_C890” value in [4] (ramos) is 4.2. Further, in assay [6], the “isoTOP-ABPP ratio, cysteine Q99798_C385” value amounted to 0.7. Also, in [2], the “isoTOP-ABPP ratio, cysteine Q8IU81_C363” value was determined as 5.9. Also, the “isoTOP-ABPP ratio, cysteine Q9NXJ5_C149” value in assay [5] (ramos) amounted to 11.0.
As for `O=C(CCl)N1CCc2cc(Br)ccc21` [compound 50], on O114933_C98 (in-vitro_ramos_231), the “isoTOP-ABPP reactivity profile ratio, O114933_C98” value came to 1.5.
Take `CC(C)CCOCCNC(=O)CCl` [compound 27]: the “isoTOP-ABPP ratio O75150_C890” value in [4] (231) was 1.2. In addition, the “isoTOP-ABPP ratio, Q9Y5T5_C205” value in assay [7] (231) was found to be 1.2.
With `N#CC(=Cc1ccc(-c2ccccc2Cl)o1)C(N)=O` [compound 42], the “isoTOP-ABPP reactivity profile ratio, O114933_C98” value at O114933_C98 (in-vitro_ramos) is 1.0.
`C=CC(=O)N1CCC(c2noc3ccc(F)cc23)CC1` [compound 37]: the “isoTOP-ABPP reactivity ratio” value on O00541_C272 (in-vitro_ramos) is recorded as 1.0.
`O=C(CCl)NC12CC3CC(CC(C3)C1)C2` [compound 21]: the “isoTOP-ABPP ratio, cysteine Q99798_C385” value in [6] was 2.0. In addition, in assay [7] (231), the “isoTOP-ABPP ratio, cysteine Q9Y5T5_C205” value is 0.9.
Consider `C=CC(=O)N1CCC(Cc2ccccc2)CC1` [compound 53], for which the “isoTOP-ABPP reactivity profile ratio, O114933_C98” value at O114933_C98 (in-vitro_ramos) worked out at 1.0.
`COc1ccc2c(c1)CCCN2C(=O)CCl` [compound 2]: the “isoTOP-ABPP reactivity Q9UKX7_C151 NUP50” value in assay [3] (200 μM, insitu, 231) is given as 6.1. For the same molecule, the “isoTOP-ABPP reactivity Q9Y5S2_C1517 CDC42BPB” value in [1] (200 μM, insitu, 231) was found to be 20.0.
Take `Cn1cc(S(=O)(=O)N2CCOCC2)cc1C(=O)NC(=O)CCl` [compound 11]: the “isoTOP-ABPP ratio, cysteine Q9UKX7_C151” value in [3] (100 μM in situ 231) amounted to 1.0. The “isoTOP-ABPP ratio, cysteine Q9Y5S2_C1517” value in assay [1] (100 μM in situ 231) is recorded as 1.2. In [8] (100 μM in situ 231), the “isoTOP-ABPP ratio, cysteine O00541_C272” value stood at 1.0.
Regarding `O=C(CCl)NCCc1c[nH]c2ccccc12` [compound 13], the “isoTOP-ABPP ratio, cysteine Q9Y5T5_C205” value in assay [7] (ramos) was found to be 20.0. In addition, the “isoTOP-ABPP ratio, cysteine Q9NXJ5_C149” value in [5] (ramos) stood at 20.0. The “isoTOP-ABPP ratio, cysteine O00541_C272” value in assay [8] (200 μM, insitu, 231) came to 1.4.
Consider `Cc1ccc(C=C(C#N)C(=O)NCCN2CCOCC2)cc1` [compound 41], for which, in assay [3] (200 μM, insitu, 231), the “isoTOP-ABPP ratio Q9UKX7_C151” value is given as 0.8. Further, the “isoTOP-ABPP ratio O75150_C890” value in [4] (231) is recorded as 1.3. Further, the “isoTOP-ABPP ratio Q99798_C385” value in assay [6] came out at 0.1. Moreover, in assay [1] (200 μM, insitu, 231), the “isoTOP-ABPP ratio Q9Y5S2_C1517” value is reported as 0.4. Besides, the “isoTOP-ABPP ratio, O00541_C272” value in assay [8] (200 μM, insitu, 231) amounted to 0.9.
With `O=C(CCl)Nc1ccc(-c2ccccc2)cc1` [compound 52], the “isoTOP-ABPP reactivity profile ratio, O114933_C98” value on O114933_C98 (in-vitro_ramos) and on O114933_C98 (in-vitro_ramos_231) was 1.4 throughout.
On to `C=CC(=O)Nc1cc(F)c(N2CCN(C(=O)OC(C)(C)C)CC2)c(F)c1` [compound 38], for which, at O00541_C272 (in-vitro_ramos_231), the “isoTOP-ABPP reactivity ratio” value is on record as 1.0. For the same molecule, the “isoTOP-ABPP ratio Q8IU81_C363” value in [2] is listed as 1.3. In addition, in assay [7] (231), the “isoTOP-ABPP ratio, Q9Y5T5_C205” value stood at 1.5.
Turning to `C=CC(=O)N(Cc1cccnc1)c1cc(C(F)(F)F)cc(C(F)(F)F)c1` [compound 31], the “isoTOP-ABPP ratio O75150_C890” value in [4] (231) is given as 0.7. In assay [2], the “isoTOP-ABPP ratio Q8IU81_C363” value came out at 0.7.
